Several values for one entry are separate records, joined by “and”; a condition that tells them apart may be missing. Equal entries are not always repeated.
Legend:
[1] = 13-week inhalation toxicology study, rat model; assay type: in vivo; conditions: in vivo, inhaled or intranasal, rat; for AUC(0-t): AUC0-24
Method: (§1) Lactose/MgSt-based formulations of Compound I were evaluated during a 13-week inhalation toxicology study using a rat model.
(§2) The NOAEL was assigned to the highest dose study (11.9 mg/kg/day).

rat = experiment: 13-week inhalation toxicology study, rat model; assay type: in vivo; conditions: for AUC0-24: rat, in vivo, inhaled or intranasal
Method: as §1, §2

[2] = test system: fractional exhaled nitric oxide (FeNO); experiment: Phase 1 Part 3: FeNO reduction in moderate to severe asthma on background ICS/LABA; assay type: in vivo, human; conditions: for Mean Placebo-Corrected % Change from Day 1 Pre-Dose or from Patient's Baseline (FeNO): 4 mg BID (n = 5), Baseline FeNO >35 ppb and blood eosinophils >250 cells/μL; for % subjects achieving FeNO level <25 ppb on Day 10: 4.0 mg BID
Method: A status summary of the phase 1 clinical trial recruitment is shown below in Table 18. Capsules filled with blend 2a were used to achieve a 0.6 mg target dose of Compound I (0.2 mg capsules×3). Capsules filled with blend 4 were used to achieve 2.0 mg, 4.0 mg, 6.0 mg, 8.0 mg, and 12.0 mg target doses of Compound I (2.0 mg capsule×1; 4.0 mg capsule×1; 2.0 mg capsules×3; 4.0 mg capsules×2; and 4.0 mg capsules×3, respectively). Twice daily dosing (BID) was achieved by repeating the preceding regime. For example, an 8.0 mg BID dosing regime is achieved by administering two doses of 4.0 mg capsules×2.
Particular FeNO reduction data from FIG. 9 is highlighted below in Table 25. […] More specifically, subjects with Day 1 pre-dose FeNO levels between 33 and 280 ppb reported reductions greater than 20% by Day 10 and subjects with Day 1 pre-dose FeNO levels ranging from 33 to 118 ppb recorded levels less than 25 ppb by Day 10.
Part 3 involved the administration of a single dose regimen (4 mg BID), to subjects (17 active:6 placebo) with moderate to severe asthma treated with background ISC/LABA therapy, over a 10-day period. Blood samples were collected to enable the measurement of KN-002 concentrations in plasma. The resultant data was used to determine the pharmacokinetic parameters at Day 10 representing the Day on which the final dose was received.

[3] = test system: induced sputum eosinophil count; experiment: Phase 1 Part 3 induced sputum differential eosinophil count; assay type: in vivo, human; conditions: 4 mg BID
Excerpt: Day 10 sputum and serum inflammatory biomarkers are shown below in Table 29. Part 3 included an evaluation of sputum samples obtained by sputum induction in accordance with European Respiratory Society guidelines (Paggiaro, et al., Eur. Respir. J. 2002, 20: Suppl. 37, 3 s). Subjects were randomized into sputum-producer and non-sputum producer strata with a target minimum of approximately 50% of subjects able to provide an adequate sputum sample at screening. […] Differential cell counts (DCC) were performed on samples judged adequate per standard procedure and patients with evaluable baseline (screening) and Day 10 (or Day 11 if Day 10 was not adequate) post-treatment samples were considered for analyses that included individual and mean absolute and percentage differential eosinophil counts.
In the sputum producer stratum, 6 Compound I (active) subjects and 2 placebo subjects were identified as having adequate baseline and post-treatment sputum samples and the resultant data was used to determine change from baseline, mean change from baseline, and mean placebo-corrected change from baseline (Compound I vs placebo). […] At baseline, all subjects manifested a percent differential eosinophil count >3%, indicative of active eosinophilic inflammation. By Day 10, 66% ( 4/6) of active subjects had improved below 3% eosinophils, with 50% ( 3/6) below a more stringent threshold of 1.9% (Reddel et al., Am. J. Respir. Crit. Care Med. 2009, 180, 59).

[4] = Day 10, Mean of active subjects (n = 6)
[5] = Day 10, active (n = 6) vs placebo (n = 2)
[6] = Day 10, individual active subjects 13026, 13027, 13038, 13073, 13095, 13097 (c1-c6)
[7] = Mean of active subjects (n = 6)
[8] = individual active subjects 13026, 13027, 13038, 13073, 13095, 13097 (c1-c6)

With `Cn1c(=O)n([C@H]2CCCN(C(=O)CC#N)C2)c2nc(-c3cnn4ccccc34)ccc21` [Compound I, (S)-3-(3-(1-methyl-2-oxo-5-(pyrazolo[1,5-a]pyridine-3-yl)-1H-imidazo[4,5-b]pyridine-3(2H)-yl)piperidin-1-yl)-3-oxopropanenitrile] the NOAEL at 13 weeks ([1]; 13-week inhalation, highest dose) was 11.9 mg/kg/day, the AUC(0-t) ([1]; 1.3 mg/kg/day) was 339 ng·h/mL and the AUC(0-t) ([1]; 4 mg/kg/day) was 850 ng·h/mL. For the same compound, the AUC(0-t) ([1]; 12 mg/kg/day) was 2060 ng·h/mL, the AUC0-24 (rat; 1.3 mg/kg/day) was 197 ng·h/mL and the AUC0-24 (rat; 4 mg/kg/day) was 738 ng·h/mL. The AUC0-24 (rat; 12 mg/kg/day) was 1950 ng·h/mL, the MMAD (rat; target delivered dose 1.3 mg/kg/day (low dose)) was 1.9 μm and the MMAD (rat; target delivered dose 4.0 mg/kg/day (mid dose)) was 2.0 μm. For the same compound, the MMAD (rat; target delivered dose 12.0 mg/kg/day (high dose)) was 2.1 μm, the “Mean Placebo-Corrected % Change from Day 1 Pre-Dose or from Patient's Baseline (FeNO)” value (from here on “Mean Placebo-Corrected % Change”) ([2]; Day 10 + 3 hrs) was −37% and the “Mean Placebo-Corrected % Change” value ([2]; Day 10 + 6 hrs) was −43%. The “Mean Placebo-Corrected % Change” value ([2]; Day 10 + 12 hrs) was −47%, the “Mean Placebo-Corrected % Change” value ([2]; Day 10 mean) was −43% and the “Mean Placebo-Corrected % Change” value ([2]; Day 10 pre-dose) was −44%. The “% subjects achieving FeNO level <25 ppb on Day 10” value ([2]; ITT) was 59%, the “Mean placebo-corrected % FeNO reduction from Day 1 pre-dose” value (from here on “Mean placebo-corrected % FeNO reduction”) ([2]; 4 mg BID, ITT (n = 17), Day 10 + 3 hours) was −13.7% and the “Mean placebo-corrected % FeNO reduction” value ([2]; 4 mg BID, ITT (n = 17), Day 10 + 6 hours) was −24.0%. The “Mean placebo-corrected % FeNO reduction” value ([2]; 4 mg BID, ITT (n = 17), Day 10 + 12 hours) was −36.3%, the “Mean placebo-corrected % FeNO reduction” value ([2]; 4 mg BID, ITT (n = 17), Day 10 mean) was −24.2% and the “Mean placebo-corrected % FeNO reduction” value ([2]; 4 mg BID, ITT (n = 17), Day 10 pre-dose) was −22.9%. For the same compound, the “% subjects achieving FeNO level <25 ppb on Day 10” value ([2]; PP (excludes Day 1 pre-dose FeNO <30 ppb)) was 52%, the “Mean placebo-corrected % FeNO reduction” value ([2]; 4 mg BID, PP (n = 15, excludes Day 1 pre-dose FeNO <30 ppb), Day 10 + 3 hours) was −24.8% and the “Mean placebo-corrected % FeNO reduction” value ([2]; 4 mg BID, PP (n = 15, excludes Day 1 pre-dose FeNO <30 ppb), Day 10 + 6 hours) was −33.3%. For the same compound, the “Mean placebo-corrected % FeNO reduction” value ([2]; 4 mg BID, PP (n = 15, excludes Day 1 pre-dose FeNO <30 ppb), Day 10 + 12 hours) was −37.0%, the “Mean placebo-corrected % FeNO reduction” value ([2]; 4 mg BID, PP (n = 15, excludes Day 1 pre-dose FeNO <30 ppb), Day 10 mean) was −31.9% and the “Mean placebo-corrected % FeNO reduction” value ([2]; 4 mg BID, PP (n = 15, excludes Day 1 pre-dose FeNO <30 ppb), Day 10 pre-dose) was −32.7%. For the same compound, the “FeNO reductions by Day 10” value ([2]; 4 mg BID, subjects with Day 1 pre-dose FeNO levels between 33 and 280 ppb) was “greater than 20%”, the “FeNO levels by Day 10” value ([2]; 4 mg BID, subjects with Day 1 pre-dose FeNO levels ranging from 33 to 118 ppb) was “less than 25 ppb” and the “Mean placebo-corrected change in FeNO from Day 1 pre-dose, blood eosinophil subgroup” value (“Mean placebo-corrected change in FeNO” for short) ([2]; Blood eosinophil cut-off ≥0.15 × 10^9/L (n = 16), Day 10 + 3 hours) was −26. For the same compound, the “Mean placebo-corrected change in FeNO” value ([2]; Blood eosinophil cut-off ≥0.15 × 10^9/L (n = 16), Day 10 + 6 hours) was −35, the “Mean placebo-corrected change in FeNO” value ([2]; Blood eosinophil cut-off ≥0.15 × 10^9/L (n = 16), Day 10 + 12 hours) was −52 and the “Mean placebo-corrected change in FeNO” value ([2]; Blood eosinophil cut-off ≥0.15 × 10^9/L (n = 16), Day 10 mean) was −37. For the same compound, the “Mean placebo-corrected change in FeNO” value ([2]; Blood eosinophil cut-off ≥0.15 × 10^9/L (n = 16), Day 10 pre-dose) was −34, the “Mean placebo-corrected change in FeNO” value ([2]; Blood eosinophil cut-off ≥0.3 × 10^9/L (n = 11), Day 10 + 3 hours) was −44 and the “Mean placebo-corrected change in FeNO” value ([2]; Blood eosinophil cut-off ≥0.3 × 10^9/L (n = 11), Day 10 + 6 hours) was −54. For the same compound, the “Mean placebo-corrected change in FeNO” value ([2]; Blood eosinophil cut-off ≥0.3 × 10^9/L (n = 11), Day 10 + 12 hours) was −75, the “Mean placebo-corrected change in FeNO” value ([2]; Blood eosinophil cut-off ≥0.3 × 10^9/L (n = 11), Day 10 mean) was −57 and the “Mean placebo-corrected change in FeNO” value ([2]; Blood eosinophil cut-off ≥0.3 × 10^9/L (n = 11), Day 10 pre-dose) was −53. For the same compound, the “Induced sputum % differential eosinophil count, % Change from Screening” value [3, 4] was −65%, the “Induced sputum % differential eosinophil count, Change from Screening” value [3, 4] was −6.8% and the “Induced sputum absolute differential eosinophil count, % Change from Screening” value [3, 4] was −79%. The “Induced sputum absolute differential eosinophil count, Change from Screening” value [3, 4] was −0.15 10^6/g, the “Induced sputum % differential eosinophil count, Mean placebo-corrected change” value [3, 5] was −21.3% and the “Induced sputum absolute differential eosinophil count, Mean placebo-corrected change” value [3, 5] was −0.22 10^6/g. For the same compound, the “Induced sputum % differential eosinophil count, % Change from Screening” value [3, 6] was −54% and −48% and −81% and −64% and −75% and −94%, the “Induced sputum % differential eosinophil count, Change from Screening” value [3, 6] was −8.3% and −2.3% and −4.3% and −18.8% and −3.0% and −4.5% and the “Induced sputum % differential eosinophil count, Reduced to normal level (<3%)” value [3, 6] was “No (2×) and Yes (4×)”. For the same compound, the “Induced sputum absolute differential eosinophil count, % Change from Screening” value [3, 6] was −70% and −75% (2×) and −89% and −88% and −100%, the “Induced sputum absolute differential eosinophil count, Change from Screening” value [3, 6] was −0.16 10^6/g and −0.09 10^6/g and −0.08 10^6/g and −0.33 10^6/g and −0.07 10^6/g and −0.17 10^6/g and the “Active subjects below more stringent threshold of 1.9% eosinophils (sputum)” value ([3]; by Day 10 (3/6)) was 50%. The “Active subjects improved below 3% eosinophils (sputum percent differential count)” value ([3]; by Day 10 (4/6)) was 66%, the “Induced sputum % differential eosinophil count, Day 10 level” value [3, 7] was 3.7% and the “Induced sputum absolute differential eosinophil count, Day 10 level” value [3, 7] was 0.04 10^6/g. The “Induced sputum % differential eosinophil count, Day 10 level” value [3, 8] was 7.0% and 2.5% and 1.0% (2×) and 10.5% and 0.3% and the “Induced sputum absolute differential eosinophil count, Day 10 level” value [3, 8] was 0.07 10^6/g and 0.03 10^6/g and 0.01 10^6/g (2×) and 0.12 10^6/g and 0.001 10^6/g.

Source: US20240261224A1, “FORMULATION OF A PAN-JAK INHIBITOR” (KINASET THERAPEUTICS, INC., priority 2022, published 2024)
